Experimental data published in ChEMBL document CHEMBL1142015, “New derivatives of 1alpha,25-dihydroxy-19-norvitamin D3 with two substituents at C-2: synthesis and biological activity” (Bioorg Med Chem Lett, 2005).
“And” between values parts separate entries of the source, which are not always exact repeats. Equal values may be shown once.

Experiments:
[1] = target: T1, Vitamin D3 receptor (Bos taurus) (UniProt Q28037); assay: Percent binding affinity for bovine vitamin D receptor compared to 1a
T1 sequence (whole entry): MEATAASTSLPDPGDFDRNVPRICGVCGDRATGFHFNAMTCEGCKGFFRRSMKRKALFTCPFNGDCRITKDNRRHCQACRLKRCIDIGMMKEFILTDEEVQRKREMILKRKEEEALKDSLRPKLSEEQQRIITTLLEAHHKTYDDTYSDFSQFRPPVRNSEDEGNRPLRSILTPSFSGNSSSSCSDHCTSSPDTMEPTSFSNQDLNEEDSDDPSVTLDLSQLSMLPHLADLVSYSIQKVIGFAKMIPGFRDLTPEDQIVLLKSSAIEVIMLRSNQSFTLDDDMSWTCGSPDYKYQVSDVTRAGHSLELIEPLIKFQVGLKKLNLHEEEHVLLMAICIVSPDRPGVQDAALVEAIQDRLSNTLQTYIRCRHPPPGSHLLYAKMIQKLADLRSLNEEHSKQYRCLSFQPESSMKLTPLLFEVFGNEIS

[2] = target: T1, Vitamin D3 receptor (Bos taurus); assay: Percent binding affinity for bovine vitamin D receptor compared to 2-Et-1-alpha,2,5-dihydroxy-19-norvitamin D3
[3] = target: T2, Vitamin D3 receptor (Homo sapiens) (UniProt P11473); assay: Percent activation of vitamin D receptor in COS-7 cell transcription assay at 10e-8 or 10e-9 M; type: functional, cell-based
T2 sequence (whole entry): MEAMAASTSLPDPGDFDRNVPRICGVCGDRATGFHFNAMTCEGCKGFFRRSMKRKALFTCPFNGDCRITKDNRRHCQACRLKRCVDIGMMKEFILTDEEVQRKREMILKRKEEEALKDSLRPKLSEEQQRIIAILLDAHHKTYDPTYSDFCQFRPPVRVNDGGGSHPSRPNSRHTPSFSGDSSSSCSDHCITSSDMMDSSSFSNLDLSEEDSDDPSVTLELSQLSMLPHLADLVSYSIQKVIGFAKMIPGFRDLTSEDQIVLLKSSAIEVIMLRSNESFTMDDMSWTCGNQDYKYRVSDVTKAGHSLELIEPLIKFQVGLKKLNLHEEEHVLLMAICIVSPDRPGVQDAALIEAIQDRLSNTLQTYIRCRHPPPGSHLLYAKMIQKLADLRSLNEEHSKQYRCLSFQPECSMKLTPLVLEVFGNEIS

[4] = target: T2, Vitamin D3 receptor (Homo sapiens); assay: Activation of vitamin D receptor in COS-7 cell transcription assay; type: functional, cell-based
[5] = target: T1, Vitamin D3 receptor (Bos taurus); assay: Percent binding affinity for bovine vitamin D receptor compared to 2-Me-1-alpha,2,5-dihydroxy-19-norvitamin D3

VDR affinity [1] | SMILES | further results
4% and 0.1% | COCC1(O)[C@H](O)CC(=C/C=C2/CCC[C@]3(C)[C@@H]([C@H](C)CCCC(C)(C)O)CC[C@@H]23)C[C@H]1O (stereo partly specified) | 
5% | CCC1(O)[C@H](O)CC(=C/C=C2/CCC[C@]3(C)[C@@H]([C@@H](C)CCCC(C)(C)O)CC[C@@H]23)C[C@H]1O (stereo partly specified) | VDR affinity [2]: 200%; Transcriptional activity [3]: 92%
2% and 0.05% | CCC1(O)[C@H](O)CC(=C/C=C2/CCC[C@]3(C)[C@@H]([C@H](C)CCCC(C)(C)O)CC[C@@H]23)C[C@H]1O (stereo partly specified) | 
 | C[C@@H](CCCC(C)(C)O)[C@H]1CC[C@H]2/C(=C\C=C3C[C@@H](O)C4(CO4)[C@H](O)C3)CCC[C@]12C (stereo partly specified) | ED50 [4]: 89 nM and 18 nM
2% and 0.02% | C[C@H](CCCC(C)(C)O)[C@H]1CC[C@H]2/C(=C\C=C3C[C@@H](O)C(O)(CF)[C@H](O)C3)CCC[C@]12C (stereo partly specified) | 
100% | C[C@@H](CCCC(C)(C)O)[C@H]1CC[C@H]2/C(=C\C=C3C[C@@H](O)C(C)(O)[C@H](O)C3)CCC[C@]12C (stereo partly specified) | ED50 [4]: 3200 nM; VDR affinity [5]: 23% and 18%
100% | C=C1/C(=C\C=C2/CCC[C@]3(C)[C@@H]([C@H](C)CCCC(C)(C)O)CC[C@@H]23)C[C@@H](O)C[C@@H]1O | 
20% and 10% | COCC1(O)[C@H](O)CC(=C/C=C2/CCC[C@]3(C)[C@@H]([C@@H](C)CCCC(C)(C)O)CC[C@@H]23)C[C@H]1O (stereo partly specified) | 
4% and 3% | C[C@H](CCCC(C)(C)O)[C@H]1CC[C@H]2/C(=C\C=C3C[C@@H](O)C4(CO4)[C@H](O)C3)CCC[C@]12C (stereo partly specified) | ED50 [4]: 5 nM and 4 nM
60% | C[C@@H](CCCC(C)(C)O)[C@H]1CC[C@H]2/C(=C\C=C3C[C@@H](O)C(O)(CF)[C@H](O)C3)CCC[C@]12C (stereo partly specified) | 
 | C[C@H](CCCC(C)(C)O)[C@H]1CC[C@H]2/C(=C\C=C3C[C@@H](O)C(C)(O)[C@H](O)C3)CCC[C@]12C (stereo partly specified) | VDR affinity [5]: 21% and 2.6%
